The record followed here is patent US7109193B2, “Tricyclic diazepines tocolytic oxytocin receptor antagonists” (Wyeth, priority 2001, dated 2006).

The target in the assay is T1, human vasopressin V2 receptor subtype (Homo sapiens, UniProt P30518).
T1 construct: host or cells: CHO cells (pZeoSV vector)
The assay can be described thus: Vasopressin binding in Chinese Hamster Ovary cell membranes expressing human vasopressin V2 subtype receptors. The settings on record: CHO cell membranes, [3H]arginine vasopressin; for IC50: values in parentheses. A digest of the protocol: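 Radioligand displacement on membranes from CHO cells stably expressing human V2 receptor, 25 to 50 μg protein/well, in 50 mM Tris-HCl pH 7.4 with MgCl2, BSA and protease inhibitors. [^3H]arginine vasopressin (8 nM working solution) incubated 60 min at room temperature; bound label measured by filtration and scintillation counting.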

The structures appear in SMILES notation.

The term IC50 denotes the concentration needed to halve the response being measured. The inhibition is the relative decrease from the control value, in per cent.

T1 sequence (P30518 whole entry): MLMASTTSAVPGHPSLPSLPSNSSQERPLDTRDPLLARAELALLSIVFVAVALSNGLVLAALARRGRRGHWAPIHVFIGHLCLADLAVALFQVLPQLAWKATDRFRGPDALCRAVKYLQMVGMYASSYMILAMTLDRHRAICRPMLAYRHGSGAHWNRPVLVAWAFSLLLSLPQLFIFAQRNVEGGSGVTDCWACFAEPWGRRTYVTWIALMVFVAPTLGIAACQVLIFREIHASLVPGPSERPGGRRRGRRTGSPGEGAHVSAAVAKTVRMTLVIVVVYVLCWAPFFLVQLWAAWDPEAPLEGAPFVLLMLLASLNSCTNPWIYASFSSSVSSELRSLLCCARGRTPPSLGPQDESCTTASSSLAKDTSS

Turning to `COc1cc(C(=O)N2Cc3cccn3Cc3ccccc32)ccc1-n1c(C)ccc1C` [Example 27, [4-(2,5-Dimethyl-1-H-pyrrol-1-yl)-3-methoxy-phenyl][10,11-dihydro-5H-pyrrolo[2,1-c][1,4]benzodiazepin-10-yl]methanone], the 50% inhibitory concentration (IC50) was 149 nM.

Take `COc1cc(-c2ccccc2C(F)(F)F)c(OC)cc1C(=O)N1Cc2cccn2Cc2ccccc21` [Example 32, 10-{[3,6-Dimethoxy-2′-trifluoromethyl-[1,1′-biphenyl]-4-yl]carbonyl}-10,11-dihydro-5H-pyrrolo[2,1-c][1,4]benzodiazepine]: the 50% inhibitory concentration (IC50) came to 605 nM.

As for `COc1ccccc1-c1ccc(C(=O)N2Cc3ccc(C(=O)N4CCN(CCCN(C)C)CC4)n3Cc3ccccc32)cc1` [Example 246, {4-[3-(Dimethylamino)propyl]-1-piperazinyl}{10-[(2′-methoxy[1,1′-biphenyl]-4-yl)carbonyl]-10,11-dihydro-5H-pyrrolo[2,1-c][1,4]benzodiazepin-3-yl}methanone], the IC50 is 508 nM.

For `COc1ccccc1-c1ccc(C(=O)N2Cc3ccc(C(=O)N4CCC(N5CCCCC5)CC4)n3Cc3ccccc32)cc1` [Example 111, {10-[(2′-Methoxy[1,1′-biphenyl]-4-yl)carbonyl]-10,11-dihydro-5H-pyrrolo[2,1-c][1,4]benzodiazepin-3-yl}[4-(1-piperidinyl)-1-piperidinyl]methanone], the IC50 turned out to be 772 nM.

Regarding `Cc1cc(C(=O)N2Cc3ccc(C(=O)N4CC[C@@H](N(C)C)C4)n3Cc3ccccc32)ccc1-c1ccccc1C(F)(F)F` [Example 271, [(3R)-3-(Dimethylamino)pyrrolidinyl](10-{[2-methyl-2′-(trifluoromethyl)[1,1′-biphenyl]-4-yl]carbonyl}-10,11-dihydro-5H-pyrrolo[2,1-c][1,4]benzodiazepin-3-yl)methanone], the IC50 came to 1920 nM.

Turning to `CN(C)CCCNC(=O)c1ccc2n1Cc1ccccc1N(C(=O)c1ccc(-c3cccc4ccccc34)cc1Cl)C2` [Example 83, 10-[2-Chloro-4-(1-naphthyl)benzoyl]-N-[3-(dimethylamino)propyl]-10,11-dihydro-5H-pyrrolo[2,1-c][1,4]benzodiazepine-3-carboxamide], the inhibition at 0.1 µM (100 nM, values without parentheses) was determined as 18%.
